Reference: patent US12268683B2, “Compounds and methods for synergistic activation of M channels” (THE REGENTS OF THE UNIVERSITY OF CALIFORNIA, priority 2018, dated 2025)

Key:
KCNQ2-W236L/KCNQ3 = KCNQ2-W236L/KCNQ3 (Homo sapiens, UniProt O43525+O43526, W236L); assay: TEVC of KCNQ2-W236L/KCNQ3 channels; type: cell-based
Text: (§1) As previously described (12), we generated cRNA transcripts encoding human KCNA1, KCNE1, KCNE2, KCNE3, KCNQ1, KCNQ2, KCNQ3, KCNQ4 or KCNQ5 by in vitro transcription using the T7 polymerase mMessage mMachine kit (Thermo Fisher Scientific), after vector linearization, from cDNA sub-cloned into plasmids incorporating Xenopus laevis β-globin 5′ and 3′ UTRs flanking the coding region to enhance translation and cRNA stability. We quantified cRNA by spectrophotometry. We generated mutant KCNQ2 and KCNQ3 cDNAs by site-directed mutagenesis with a QuikChange kit (Stratagene, San Diego, Calif.) and prepared the cRNAs as above. We injected defolliculated stage V and VI Xenopus laevis oocytes (Ecocyte Bioscience, Austin, Tex. and Xenoocyte, Dexter, Mich., US) with KCNE and/or KCNQ cRNAs (5-20 ng). We incubated the oocytes at 16° C. in Barth's saline solution (Ecocyte) containing penicillin and streptomycin, with daily washing, for 3-5 days prior to two-electrode voltage-clamp (TEVC) recording.
We performed TEVC at room temperature using an OC-725C amplifier (Warner Instruments, Hamden, Conn.) and pClamp10 software (Molecular Devices, Sunnyvale, Calif.) 2-5 days after cRNA injection as described in the section above. For recording, we placed the oocytes in a small-volume oocyte bath (Warner) and viewed them with a dissection microscope. We sourced chemicals from Sigma unless otherwise stated. We studied effects of 1% cilantro extract and of nine compounds previously identified in cilantro extract. Vanillic acid and 3,4-Dihydroxybenzoic acid were each solubilized in 100% ethanol at a stock concentration of 100 mM; the other compounds were solubilized directly in bath solution. We initially screened for KCNQ2/3 channel activity using 100 μM concentrations of each of the nine components, then conducted dose responses where appropriate. […] We recorded currents in response to voltage pulses between −120 or −80 mV and +40 mV at 20 mV intervals from a holding potential of −80 mV, to yield current-voltage relationships, current magnitude, and for quantifying activation rate. We analyzed data using Clampfit (Molecular Devices) and Graphpad Prism software (GraphPad, San Diego, Calif., USA); values are stated as mean±SEM. […]
We generated cRNA transcripts encoding human KCNQ1, KCNQ2, KCNQ3, KCNQ4, KCNQ5 or GLRA1 (NM_001146040) (GenScript, Piscataway, N.J., USA) by in vitro transcription using the T7 polymerase mMessage mMachine kit (Thermo Fisher Scientific), after vector linearization, from cDNA sub-cloned into plasmids incorporating Xenopus laevis β-globin 5′ and 3′ UTRs flanking the coding region to enhance translation and cRNA stability. We quantified cRNA by spectrophotometry. […]

KCNQ1/KCNE1 = KCNQ1/KCNE1 (Homo sapiens, UniProt P51787); assay: TEVC of KCNQ1/KCNE1 channels; type: cell-based
Text: as §1, with “We incubated the oocytes at 16° C. in Barth's saline solution (Ecocyte) containing penicillin and streptomycin, with daily washing, for 3-5 days prior to two-electrode voltage-clamp (TEVC) recording.” left out
(§2) We performed TEVC at room temperature using an OC-725C amplifier (Warner Instruments, Hamden, Conn.) and pClamp10 software (Molecular Devices, Sunnyvale, Calif.) 2-5 days after cRNA injection as described in the section above. […] We recorded currents in response to voltage pulses between −120 or −80 mV and +40 mV at 20 mV intervals from a holding potential of −80 mV, to yield current-voltage relationships, current magnitude, and for quantifying activation rate. We analyzed data using Clampfit (Molecular Devices) and Graphpad Prism software (GraphPad, San Diego, Calif., USA); values are stated as mean±SEM. […]

KCNQ1/KCNE3 = KCNQ1/KCNE3 (Homo sapiens, UniProt P51787); assay: TEVC of KCNQ1/KCNE3 channels; type: cell-based
Text: as §1, with “We incubated the oocytes at 16° C. in Barth's saline solution (Ecocyte) containing penicillin and streptomycin, with daily washing, for 3-5 days prior to two-electrode voltage-clamp (TEVC) recording.” left out
as §2

KCNQ3/KCNQ5 = KCNQ3/KCNQ5 (Homo sapiens, UniProt O43525+Q9NR82); assay: TEVC of KCNQ3/KCNQ5 channels; type: cell-based; conditions: similar potency
Text: as §1, with “We incubated the oocytes at 16° C. in Barth's saline solution (Ecocyte) containing penicillin and streptomycin, with daily washing, for 3-5 days prior to two-electrode voltage-clamp (TEVC) recording.” left out
as §2

bacteria = conditions: read-out: bactericidal activity EC50; cited from earlier work

Compound	potency reduction by KCNQ2-W236L relative to KCNQ3-W265L mutation (KCNQ2-W236L/KCNQ3)	maximal shift in ΔV0.5activation (KCNQ2-W236L/KCNQ3; (E)-2-dodecenal)	EC50 (KCNQ2-W236L/KCNQ3; ΔV0.5activation, read-out: EC50 of (E)-2-dodecenal)	sensitivity of KCNQ1-KCNE1, fold less sensitive than KCNQ1 (KCNQ1/KCNE1)	EC50 (KCNQ1/KCNE1; read-out: EC50 of KCNQ1/KCNE1 activation)	effect on KCNQ1/KCNE3 (in words) (KCNQ1/KCNE3)	efficacy on KCNQ3/KCNQ5, lower than on KCNQ5 (KCNQ3/KCNQ5)	EC50 (bacteria)	effect on KCNQ2-W236L/KCNQ3 (in words) (KCNQ2-W236L/KCNQ3)
CCCCCCCCC/C=C/C=O [(E)-2-dodecenal]	20 fold	−9 mV	5.07 ± 0.5 µM	> twofold	0.26 ± 0.1 µM	activated	~30%	> 30 µM	–
CS(=O)(=O)N(CC(=O)O)c1cccc(F)c1 [3FMSG]	–	–	–	–	–	–	–	–	independent of KCNQ2-W236
